In US11667652B2, “MCL1 inhibitors” (Gilead Sciences, Inc., priority 2019, dated 2023):
Where two headings read alike, the source gives them in different places.

Experiments:
[1] = molecular target: MCL1/Bim (Homo sapiens (Human), UniProt Q07820); assay: MCL1/Bim Binding AlphaLISA Assay; conditions: recombinant human 6xHis-MCL1 (171-327), biotinylated Bim peptide (51-76)
Procedure: MCL1/Bim Binding AlphaLISA Assay.
Inhibition of the MCL1 and Bim interaction was measured in the following AlphaLISA assay.
Recombinant human MCL1 protein (C-terminal 6×His Tagged MCL1 containing residues 171-327) was generated at Gilead Sciences, Inc. (Foster City, Calif.). A biotinylated peptide derived from human Bim (residues 51-76) was purchased from CPC Scientific (Sunnyvale, Calif.). (CPC 834113). AlphaLISA anti-6His- acceptor beads (AL128R), AlphaScreen Streptavidin donor beads (6760002B), and Proxiplate-384 Plus (6008289) were purchased from PerkinElmer.
The AlphaLISA assay was performed in a 384-well Proxiplate in a total volume of […]. The reaction mixture contained 0.0625 nM 6×His-MCL1 (171-327), 0.0625 nM biotinylated-Bim peptide, 10 μg/mL AlphaLISA anti-6×His-AlphaLISA acceptor beads, 40 μg/mL AlphaScreen streptavidin donor beads, and serially diluted test compounds in the binding buffer (20 mM Hepes, pH 7.5 (Teknova H1035); 150 mM NaCl (Promega V4221); 0.002% Brij 35 (Thermo Scientific 20150); 1 mM Dithiothreitol (DTT) Solution (Affymetrix 70726); 0.01% BSA (BioLabs B9000S)). 1,000× test compounds were pre-spotted onto 384-well Proxiplate (Labcyte Echo) by Echo 555 Liquid Handler (Labcyte Inc., San Jose, Calif.) followed by incubation of 5 μL MCL1(171-327) for 1 hour. Then 5 μL Bim (51-76) was added and incubated for 2 hours. Five μL AlphaLISA anti-6His-AlphaLISA acceptor beads were then added for 1 hour followed by addition of 5 μL AlphaScreen streptavidin donor beads for 1 hour. The reaction plates were then read on an Envision multimode reader (PerkinElmer) using AlphaScreen settings. Percent inhibition was calculated as shown below: % Inhibition=100%*(Well−Neg)/(Pos−Neg) Neg: negative control, DMSO Pos: positive control, no MCL1 protein, no biotinylated-Bim peptide

[2] = system: SKBR3 cells; assay: SKBR3 Cell Viability Assay; format: cell-based; conditions: CellTiter Glo, read-out: MCL1 CV SKBR3 EC50
Procedure: SKBR3 Cell Viability Assay Materials
SKBR3 Cells (ATCC HTB-30) were obtained from ATCC (Manassas, Va.) and cultured in McCoy 5A's medium (ATCC 30-2007)+10% fetal bovine serum (SH30071.03, HyClone, Pittsburgh, Pa.) plus 1× Penicillin-Streptomycin L-glutamine (Corning 30-009-CI, Corning, N.Y.).
The cell viability assay was conducted in a 384-well tissue culture plate (Grenier 781086, Monroe, N.C.) in a total volume of 70 μL. Test compounds were prepared in 1,000×, serially diluted, and pre-spotted into 384-well tissue culture plate by Echo 555 Liquid Handler (Labcyte Inc., San Jose, Calif.). Seventy μL of 6,000 SKBR3 cells were dispensed into each well of the plate and incubated at 37° C. with 5% CO2 for 72 hours. At the end of incubation, 2× CellTiter Glo (CTG) reagents (1 part buffer with 2 parts substrate) (Promega, Madison, Wis.) were prepared, and the plate and the reagent were equilibrated to room temperature for 30 minutes. CTG reagent was added to each plate by Biomek FX at 20 μL/well with 5 times pipetting and mixing to induce cell lysis. Luminescence was read by Envision multimode reader (PerkinElmer). Percent inhibition was calculated as followed: % Inhibition=100%*(Well−Neg)/(Pos−Neg) Neg, negative control, DMSO Pos, positive control, 10 μM Puromycin

[3] = Homo sapiens, SK-BR-3, 72 hours

Chain of MCL1/Bim (Q07820 171-327): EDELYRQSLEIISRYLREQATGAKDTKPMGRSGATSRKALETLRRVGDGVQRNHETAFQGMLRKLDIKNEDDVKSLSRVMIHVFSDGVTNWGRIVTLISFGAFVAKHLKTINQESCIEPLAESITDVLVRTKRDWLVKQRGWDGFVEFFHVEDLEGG

Compound	IC50 [1] [nM]	EC50 [2, 3] [nM]	EC50 ([2]; 72 hours) [nM]
COc1nn(C)cc1C(=O)N[S@@]1(=O)=NC(=O)c2ccc3c(c2)N(C[C@@H]2CC[C@H]2[C@@](CN2CCN4CCOC[C@@H]4C2)(OC)/C=C/C[C@H](C)C1)C[C@@]1(CCCc2cc(Cl)ccc21)CO3 [Example 112]	0.086	10.4	
CC[C@@H]1CC/C=C/[C@H](OC)[C@@H]2CC[C@H]2CN2C[C@@]3(CCCc4cc(Cl)ccc43)COc3ccc(cc32)C(=O)/[N+]([O-])=[S@]\1NC(=O)c1cn(C)nc1OC [Example 41]	0.146		126
COc1nn(C)cc1C(=O)N[S@@]1(=O)=NC(=O)c2ccc3c(c2)N(C[C@@H]2CC[C@H]2[C@@](C)(OC)/C=C/C[C@H](C)C1)C[C@@]1(CCCc2cc(Cl)ccc21)CO3 [Example 95]	4.39	3630	
COc1nn(C)cc1C(=O)N[S@@]1(=O)=NC(=O)c2ccc3c(c2)N(C[C@@H]2CC[C@H]2/C=C/[C@@H](O)[C@H](NC(C)=O)[C@H](C)C1)C[C@@]1(CCCc2cc(Cl)ccc21)CO3 [Example 119]	0.035		244
CO[C@H]1/C=C/C[C@H](C)C[S@@](=O)(NC(=O)NC2CC2)=NC(=O)c2ccc3c(c2)N(C[C@@H]2CC[C@H]21)C[C@]1(CO3)C[C@@H]2C[C@@H]2c2cc(Cl)ccc21 [Example 166]	0.171	190	
COc1nn(C)cc1C(=O)N[S@@]1(=O)=NC(=O)c2ccc3c(c2)N(C[C@@H]2CC[C@H]2[C@@H](OC)/C=C/[C@@H](OC)[C@H](C)[C@H]1C)C[C@@]1(CCCc2cc(Cl)ccc21)CO3 [Example 68]	0.2		93.8
CNc1nc(N[S@@]2(=O)=NC(=O)c3ccc4c(c3)N(C[C@@H]3CC[C@H]3[C@@H](OC)/C=C/C[C@H](C)C2)C[C@@]2(CCCc3cc(Cl)ccc32)CO4)c2cn(C)nc2n1 [Example 18]	0.042	19.6	
COc1nn(C)cc1C(=O)N[S@@]1(=O)=NC(=O)c2ccc3c(c2)N(C[C@@H]2CC[C@H]2[C@@H](OC)/C=C/[C@@H]2OCC[C@@H]1[C@H]2C)C[C@@]1(CCCc2cc(Cl)ccc21)CC3 [Example 149]	0.378	287	
COc1nn(C)cc1C(=O)N[S@@]1(=O)=NC(=O)c2ccc3c(c2)N(C[C@@H]2CC[C@H]2[C@](O)(C#CCN(C)C)/C=C/C[C@H](C)C1)C[C@@]1(CCCc2cc(Cl)ccc21)CO3 [Example 109]	0.028		35.3
COc1ccc2c(N[S@@]3(=O)=NC(=O)c4ccc5c(c4)N(C[C@@H]4CC[C@H]4[C@@H](OC)/C=C/C[C@H](C)C3)C[C@@]3(CCCc4cc(Cl)ccc43)CO5)ncnc2c1 [Example 21]	0.156	882	
CO[C@H]1/C=C/CCC[S@@](=O)(NC(=O)c2cnn(C)c2)=NC(=O)c2ccc3c(c2)N(C[C@@H]2CC[C@H]21)C[C@]1(CO3)C[C@@H]2C[C@@H]2c2cc(Cl)ccc21 [Example 173]	0.1	310	
CC[C@H]1C/C=C/[C@H](OC)[C@@H]2CC[C@H]2CN2C[C@@]3(CCCc4cc(Cl)ccc43)COc3ccc(cc32)C(=O)N=[S@](=O)(NC(=O)NC2CC2)C1 [Example 42]	0.253		233
COc1nn(C)cc1C(=O)N[S@@]1(=O)=NC(=O)c2ccc3c(c2)N(C[C@@H]2CC[C@H]2[C@@H](O)C#CC[C@H](C)C1)C[C@@]1(CCCc2cc(Cl)ccc21)CO3 [Example 36]	0.267		1070
C[C@H]1C/C=C/[C@H](O)[C@@H]2CC[C@H]2CN2C[C@@]3(CCCc4cc(Cl)ccc43)COc3ccc(cc32)C(=O)N=[S@](=O)(Nc2ncnc3nn(C)cc23)C1 [Example 29]	0.038	15.3	
COc1nn(C)cc1C(=O)N[S@@]1(=O)=NC(=O)c2ccc3c(c2)N(C[C@@H]2CC[C@H]2[C@@](O)(C#CCN(C)C)/C=C/C[C@H](C)C1)C[C@@]1(CCCc2cc(Cl)ccc21)CO3 [Example 108]	0.048		6
COc1nn(C)cc1C(=O)N[S@@]1(=O)=NC(=O)c2ccc3c(c2)N(C[C@@H]2CC[C@H]2[C@H](OC)/C=C/[C@H](OC(C)=O)[C@H](C)[C@H]1C)C[C@@]1(CCCc2cc(Cl)ccc21)CO3 [Example 92]	2.59		796
COc1nn(C)cc1C(=O)N[S@@]1(=O)=NC(=O)c2ccc3c(c2)N(C[C@@H]2CC[C@H]2[C@@H](OCCN2CC(OC)C2)/C=C/C[C@H](C)C1)C[C@@]1(CCCc2cc(Cl)ccc21)CO3 [Example 61]	0.136	19.6	
CO[C@H]1/C=C/C[C@H](C)C[S@@](=O)(Nc2nc(N(C)C)nc3nn(C)cc23)=NC(=O)c2ccc3c(c2)N(C[C@@H]2CC[C@H]21)C[C@@]1(CCCc2cc(Cl)ccc21)CO3 [Example 19]	0.066	37.8	
COc1nn(C)cc1C(=O)N[S@@]1(=O)=NC(=O)c2ccc3c(c2)N(C[C@@H]2CC[C@H]2[C@H]2O[C@H](CCN(C)C)C[C@@H]2CC[C@H](C)C1)C[C@@]1(CCCc2cc(Cl)ccc21)CO3 [Example 152]	0.027	51.4	
COc1nn(C)cc1C(=O)N[S@@]1(=O)=NC(=O)c2ccc3c(c2)N(C[C@@H]2CC[C@H]2[C@@](O)(CC(=O)N(C)C)/C=C/C[C@H](C)C1)C[C@@]1(CCCc2cc(Cl)ccc21)CO3 [Example 97]	0.047		15.8
COc1nn(C)cc1C(=O)N[S@@]1(=O)=NC(=O)c2ccc3c(c2)N(C[C@@H]2CC[C@H]2[C@@H](OC)C[C@H]2CC(=O)O[C@@H]2[C@H](C)C1)C[C@@]1(CCCc2cc(Cl)ccc21)CO3 [Example 140]	0.067	138	
CO[C@H]1/C=C/C[C@H](C)C[S@@](=O)(NC(=O)c2cn(C)c(=O)n2C)=NC(=O)c2ccc3c(c2)N(C[C@@H]2CC[C@H]21)C[C@@]1(CCCc2cc(Cl)ccc21)CO3 [Example 208]	0.13	140	
CO[C@@H]1/C=C\C[C@H](C)C[S@@](=O)(Nc2ncnc3nn(C)cc23)=NC(=O)c2ccc3c(c2)N(C[C@@H]2CC[C@H]21)C[C@@]1(CCCc2cc(Cl)ccc21)CO3 [Example 27]	0.103	40	
COc1nn(C)cc1C(=O)N[S@@]1(=O)=NC(=O)c2ccc3c(c2)N(C[C@@H]2CC[C@H]2[C@@H](OC)/C=C/[C@H](OCc2ncccn2)[C@H](C)C1)C[C@@]1(CCCc2cc(Cl)ccc21)CO3 [Example 74]	0.06	187	
COc1nn(C)cc1C(=O)N[S@@]1(=O)=NC(=O)c2ccc3c(c2F)N(C[C@@H]2CC[C@H]2C(OC)/C=C/[C@H](OC)[C@H](C)C1)C[C@@]1(CCCc2cc(Cl)ccc21)CO3 (stereo partly drawn) [Example 162]	0.053	27.7	
CO[C@H]1/C=C/C[C@H](C)[C@@H](C)[S@@](=O)(NC(=O)c2cnn(C3COC3)c2)=NC(=O)c2ccc3c(n2)N(C[C@@H]2CC[C@H]21)C[C@@]1(CCCc2cc(Cl)ccc21)CO3 [Example 201]	0.1	85	
CC[C@@H]1CC/C=C/[C@H](OC)[C@@H]2CC[C@H]2CN2C[C@@]3(CCCc4cc(Cl)ccc43)COc3ccc(cc32)C(=O)N=S1(=O)NC(=O)COC1CCOCC1 (stereo partly drawn) [Example 40]	0.101		326
